assay: in vitro; conditions: human, hela cells, % viability

Structure (SMILES)	viability at 28.5 h, 10 µM [%]
COc1ccc(CCNC(=O)CSC(C)C(=O)O)cc1 (stereo not shown) [CBK297493]	81.4
COc1ccc(-c2nnc(SCC(=O)c3ccc(F)cc3)n2C2CCCCC2C)cc1 (stereo not shown) [CBK297494]	89.8
O=C(O)c1cc(C=Cc2ccc(Cl)c([N+](=O)[O-])c2)nc2ccccc12 [CBK297495]	104
CCN(CC)CCn1c2ccccc2c2nc3cc(C(=O)O)ccc3nc21 [CBK297496]	101
CC(C)(C)N(Cc1ccccc1)C(=O)Cn1nc(C(=O)O)c2ccccc2c1=O [CBK297498]	86
O=C(Nc1ccc(S(=O)(=O)N2CCCC2)cc1)C1CC(=O)N(Cc2ccco2)C1 (stereo not shown) [CBK297500]	92.5
CCOc1ccc(N(CCC#N)C(=O)Cn2nc(C(=O)O)c3ccccc3c2=O)cc1 [CBK297502]	85.2
COc1cc(C=C2SC(=S)N(CCCCCC(=O)O)C2=O)cc(OC)c1 [CBK297505]	98.1
O=C(c1cc2ccccc2o1)N1CCN(c2cccc(C(F)(F)F)c2)CC1 [CBK297507]	96.8
COc1ccc(-c2nnc(SCC(=O)Nc3cc(C)on3)n2C2CCCCC2)cc1 [CBK297510]	84.1
O=[N+]([O-])c1cccc(Cn2c(CO)nc3ccccc32)c1 [CBK297515]	95.4
CCC(C)c1ccccc1NC(=O)c1cc(=O)[nH]c2ccccc12 (stereo not shown) [CBK297516]	89.6
COCCn1c(SCc2cc(=O)oc3cc(C)ccc23)nnc1-c1ccc(Cl)cc1 [CBK297517]	87.8
COc1ccc(-c2nnc(SCc3cc(=O)oc4cc(C)ccc34)n2CC(C)C)cc1 [CBK297518]	81.3
COc1ccc(OC)c(NC(=O)c2cc(=O)[nH]c3ccccc23)c1 [CBK297521]	92.7
COC(=O)c1ccc(CSc2nnc(-c3ccc(OC)cc3)n2C(C)C)o1 [CBK297523]	96.4
CC(=O)N1CC(C(=O)Nc2ccccc2Cc2ccccc2)Oc2ccccc21 (stereo not shown) [CBK297525]	88.6
CCS(=O)(=O)c1ccc(O)c(NS(=O)(=O)c2cc(C(=O)O)ccc2Cl)c1 [CBK297531]	91.1
O=C(O)c1cc(C=Cc2ccc(OC(F)F)cc2)nc2ccccc12 [CBK297532]	85.3
C[C@H](Nc1ccc(C(F)(F)F)cc1[N+](=O)[O-])C(=O)NCCOc1ccccc1F [CBK297535]	106
O=C(OCc1cc([N+](=O)[O-])cc2c1OCOC2)c1ccco1 [CBK297537]	97.9
O=C(Cn1nc(C(=O)O)c2ccccc2c1=O)c1ccc(C2CCCCC2)cc1 [CBK297538]	89.5

Structure (SMILES)	viability at 28.5 h, 10 µM [%]
Cc1ccc(-n2c(SCC(=O)N3CCC(C(=O)O)CC3)nc3ccccc3c2=O)cc1C [CBK297540]	81.4
Cc1nc(SCC(=O)c2cc(Cl)ccc2Cl)c2ccccc2n1 [CBK297543]	100
Cc1ccc(NC(=S)NCCNc2ccccn2)cc1Cl [CBK297544]	105
Cc1cc(=O)n2c(C(=O)Nc3cccc(C(=O)O)c3)c(C(=O)Nc3cccc(C)c3C)sc2n1 [CBK297545]	101
Cc1cc(=O)n2c(C(=O)Nc3ccc(C(=O)O)cc3)c(C(=O)Nc3cccc(C)c3C)sc2n1 [CBK297547]	89.5
CC1Cc2ccccc2N1C(=O)Cn1c(CCCO)nc2ccccc21 (stereo not shown) [CBK297548]	86.1
Cc1ccc(Cn2nc(C)c(C(=O)OCc3cc(=O)n4ccccc4n3)c2Cl)cc1 [CBK297550]	85.8
O=C(O)CCN1C(=O)C(=Cc2ccc(OCc3ccccc3)cc2)c2ccccc2C1=O [CBK297552]	105
CCc1ccc(NC(=O)CNc2cc(C)ccc2OC)cc1 [CBK297553]	107
CCCCn1c(CSc2ncccc2C(=O)O)nc2cc(S(=O)(=O)N3CCOCC3)ccc21 [CBK297558]	84.1
Cc1nnc(CNC(=O)c2cc(-c3ccc(Cl)cc3)nc3ccccc23)o1 [CBK297717]	109
Cc1ccccc1CN1CCCN(C(=O)CCNC(=O)c2ccco2)CC1 [CBK297718]	103
O=C(NCc1ccc(F)cc1)c1ccc(Cn2ccnc2)cc1 [CBK297719]	96.3
CC(Nc1cc(Cl)c(C(F)(F)F)cc1[N+](=O)[O-])c1ccc2[nH]c(=O)[nH]c2c1 (stereo not shown) [CBK297721]	86.7
CCOCN(C(=O)Cn1c(C(C)O)nc2ccccc21)c1c(C)cccc1CC (stereo not shown) [CBK297722]	87.6
Cc1ccc(C)c(C2C(C(=O)c3ccccc3Cl)=C(O)C(=O)N2c2ccc(CC(=O)O)cc2)c1 (stereo not shown) [CBK297723]	90.7
CSc1nc2ccc(Nc3cc(C)nc4ncnn34)cc2s1 [CBK297724]	105
CN(Cc1cccnc1)C(=O)Cc1ccc(-n2cccn2)cc1 [CBK297726]	85.6
C#CCNS(=O)(=O)c1ccc(C(=O)Nc2ccnn2Cc2ccccc2)cc1 [CBK297727]	96.4
OCCCc1nc2ccccc2n1CCOc1ccccc1 [CBK297728]	97.8
O=C(Nc1cccc(N2CCCC2=O)c1)c1ccccc1Nc1ccccc1 [CBK297729]	85.8
Cc1n[nH]c(-c2ccccc2NC(=O)Cc2sc(C)nc2-c2cccs2)n1 [CBK297737]	88.5

Structure (SMILES)	viability at 28.5 h, 10 µM [%]
CCCc1n[nH]c(=S)n1CC(=O)NCc1ccc(N2CC(C)OC(C)C2)nc1 (stereo not shown) [CBK297741]	90.4
CCCc1n[nH]c(=S)n1CC(=O)NCc1ccc(Oc2cc(C)ccc2C)nc1 [CBK297742]	87.5
CCCc1n[nH]c(=S)n1CC(=O)NCc1ccc(OCCC(C)C)c(OC)c1 [CBK297743]	84.4
CCCC(=O)NC1CCN(C(=O)c2snnc2CC)CC1 [CBK297744]	97.3
COc1ccc(NS(=O)(=O)c2ccc3c(c2)N(CC(=O)O)C(=O)CO3)cc1NS(C)(=O)=O [CBK297745]	90.1
CC(NC(=O)CCCC(=O)c1cccs1)c1cccc2ccccc12 (stereo not shown) [CBK297748]	105
CC(CNC(=O)c1ccc([N+](=O)[O-])o1)N1CCc2sccc2C1 (stereo not shown) [CBK297749]	87.9
Cc1cc(N(C)Cc2ccccc2Br)nc(N)n1 [CBK297753]	70.2
Cn1c(Sc2ccc(C#N)cn2)nnc1-c1ccco1 [CBK297756]	111
C=CCn1c(-c2sc(NC(=O)c3[nH]c4c(c3C)C(=O)CC(C)(C)C4)nc2C)n[nH]c1=S [CBK297757]	91
Cc1csc(NC(=O)c2c(C)c(C)n[nH]c2=O)n1 [CBK297759]	84.4
CCN(CC(=O)NCc1cccs1)C(=O)CN1CCCC1c1ccc(C)cc1 (stereo not shown) [CBK297761]	104
Cc1c(C(=O)Nc2cccc(S(=O)(=O)NCc3ccco3)c2)cnn1-c1ccccc1 [CBK297762]	89.7
COc1ccc(C(=O)O)cc1S(=O)(=O)Nc1cccc(C=Cc2ccccn2)c1 [CBK297763]	110
O=C(Cn1c(-c2cccs2)n[nH]c1=S)N1CCC(c2nc3cc(Cl)ccc3o2)CC1 [CBK297765]	95
Cc1ccc(S(=O)(=O)Nc2ccc(C(C)C)cc2)cc1C(=O)O [CBK297766]	84.2
CC(=O)NCCNC(=O)c1cc(Br)c[nH]1 [CBK297767]	88.3
Cc1ccc(CN2CCCN(C(=O)Cn3nc4ccccn4c3=O)CC2)cc1 [CBK297768]	79.7
CCCCN(C(=O)C(F)(F)c1ccccc1)c1c(N)n(CCC)c(=O)[nH]c1=O [CBK297769]	91.4
Cc1ccc(-c2nc(C)c(C(=O)Nc3ccc(-n4cncn4)nc3)s2)o1 [CBK297770]	95.3
Cc1nc(-c2ccco2)nc2sc(C(=O)NCc3nnc4ccccn34)c(C)c12 [CBK297773]	107
Cc1nc(COC(=O)c2ccc(C#N)c(C)n2)cs1 [CBK297775]	88.9

Structure (SMILES)	viability at 28.5 h, 10 µM [%]
Cc1ccn2c(=O)cc(COC(=O)c3sc4nc(C)cc(C)c4c3N)nc2c1 [CBK297783]	93.3
CC(C)CN(CC(C)C)C(=O)Cn1cc([N+](=O)[O-])cc(C(N)=O)c1=O [CBK297784]	83.9
COc1ccc(C2=NN(C(=O)CCCC(=O)O)C(c3ccc4nccnc4c3)C2)cc1OC (stereo not shown) [CBK297785]	84.2
CCc1nn2c(=O)cc(CNc3ccc4c(c3)OCCO4)nc2s1 [CBK297787]	99.2
COC(=O)c1cc(C#N)c(=O)n(CC(=O)N(C)Cc2ccsc2)c1 [CBK297788]	115
O=C(CNC(=O)c1ccc(OC(F)F)cc1)NCCCn1cccn1 [CBK297789]	106
CC(NC(=O)CS(=O)(=O)Cc1ccc(C#N)cc1)c1ccc(C#N)cc1 (stereo not shown) [CBK297791]	91.1
Cc1ccc(CN2CCCN(C(=O)CCn3cnc4c(cnn4C)c3=O)CC2)cc1 [CBK297793]	79.8
Cn1nnnc1-c1cccc(NC(=O)c2ccc(Oc3ccccc3)cc2)c1 [CBK297872]	81.6
CCOC(=O)c1sc2cccc(F)c2c1COC(=O)c1ccc(CNC(N)=O)cc1 [CBK297873]	101
Cc1cc(C(=O)CSc2nnc(-c3ccccc3F)n2CC(C)C)c(C)[nH]1 [CBK297877]	85.1
CCOC(=O)C1=C(C)N(c2ccc(C(=O)O)cc2)C(=O)NC1c1ccc(OC(F)F)c(OC)c1 (stereo not shown) [CBK297878]	90.1
CCC(CC)(CC(=O)Nc1ccc(N2CCCC2=O)c(C)c1)C(=O)O [CBK297881]	101
CCC(CC)(CC(=O)Nc1ccc2nc(C)sc2c1)C(=O)O [CBK297882]	112
Cc1cc(N2CCCC2)ccc1NC(=O)CCn1c(-c2cccs2)n[nH]c1=S [CBK297883]	86.6
CCOC(=O)NC(=O)CSc1nnc(C2COc3ccccc3O2)n1-c1ccccc1 (stereo not shown) [CBK297884]	88.9
Cc1ccc(C(=O)CCC(=O)N2CCCC2c2ccc(F)cc2)cc1 (stereo not shown) [CBK297885]	96.2
C=CCn1c(-c2sc(NC(=O)Cn3c(=O)n(CCC)c4ccccc43)nc2C)n[nH]c1=S [CBK297890]	97.7
Cn1cccc1C(=O)NCCNC(=O)c1cc2ccccc2[nH]1 [CBK297894]	87.7
